Laboratory results published in patent US11168073B2, “3,3-difluoroallylamines or salts thereof and pharmaceutical compositions comprising the same” (YUHAN CORPORATION, priority 2018, dated 2021).
Structures can show the parent of a compound that is named as a salt.

Tests used:
Type in all cases: biochemical
recombinant human VAP-1 = molecular target: T1, recombinant human VAP-1 (Homo sapiens, UniProt Q16853); test: Activity evaluation on recombinant human VAP-1 (Amplex Red/HRP-coupled hydrogen peroxide assay, benzylamine substrate); details: recombinant human VAP-1; 30 min preincubation at 37° C.; 1 mM benzylamine; read-out: Inhibitory Activity (IC50, nM) human VAP-1
T1 construct: purchased R&D systems
T1 sequence (Q16853 1-763): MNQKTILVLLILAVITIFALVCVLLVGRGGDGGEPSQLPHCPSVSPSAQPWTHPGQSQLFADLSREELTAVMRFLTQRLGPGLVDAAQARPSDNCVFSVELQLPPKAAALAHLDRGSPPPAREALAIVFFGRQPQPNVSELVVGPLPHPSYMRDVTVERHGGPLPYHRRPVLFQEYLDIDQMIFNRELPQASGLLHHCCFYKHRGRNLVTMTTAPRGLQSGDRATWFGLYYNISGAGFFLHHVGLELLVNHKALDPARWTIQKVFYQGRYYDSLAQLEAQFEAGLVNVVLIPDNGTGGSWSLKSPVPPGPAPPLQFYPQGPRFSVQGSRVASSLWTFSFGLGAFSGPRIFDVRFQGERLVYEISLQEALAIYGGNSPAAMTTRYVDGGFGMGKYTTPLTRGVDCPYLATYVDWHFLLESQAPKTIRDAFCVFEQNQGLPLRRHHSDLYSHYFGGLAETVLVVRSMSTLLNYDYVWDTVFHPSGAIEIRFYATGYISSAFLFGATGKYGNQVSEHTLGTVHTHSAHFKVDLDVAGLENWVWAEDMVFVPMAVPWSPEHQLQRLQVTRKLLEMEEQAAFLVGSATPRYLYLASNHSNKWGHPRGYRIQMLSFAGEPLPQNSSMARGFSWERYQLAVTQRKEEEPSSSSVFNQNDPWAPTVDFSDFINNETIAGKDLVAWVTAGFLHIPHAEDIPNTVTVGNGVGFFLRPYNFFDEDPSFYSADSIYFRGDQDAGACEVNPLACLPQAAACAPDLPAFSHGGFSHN
Protocol: (§1) The compounds according to the present technology were evaluated in terms of activity on recombinant human VAP-1 (R&D systems) by measuring the level of hydrogen peroxide in horseradish peroxidase (HRP)-coupled reaction using Amplex Red Hydrogen Peroxide Assay Kit (Molecular Probes, Invitrogen, USA). The experiment was carried out at room temperature using benzylamine as a substrate. In the HRP-coupled reaction, hydrogen peroxide oxidation of 10-acetyl-3,7-dihydroxyphenoxazine (Amplex Red reagent) produces resorufin, which is a highly fluorescent compound. Briefly, the test compound was dissolved in dimethyl sulfoxide (DMSO) at a concentration of 20 mM. The dose-response assessment was made by 1:3 serial dilution in DMSO, thereby creating a 8 point curve. The concentration of the upper part was controlled according to the efficacy of the compounds, followed by the dilution with a reaction buffer solution to obtain a final DMSO concentration of less than 1%. To each well of a 96 black well plate, human VAP-1 purified in 50 mM sodium phosphate buffer solution (pH7.4) was added. The test compounds dissolved in DMSO were incubated with the human VAP-1 enzymes at 37° C. for 30 minutes. After 30-minute incubation, each well was added with a reaction mixture containing 200 uM Amplex Red reagent prepared from 50 mM sodium phosphate buffer solution (pH 7.4), 1 mM benzylamine, and 1 U/mL HRP. Fluorescence intensity was measured at several time points during 1-2 hours using a microplate reader (Flexstation3, Molecular Devices) under the wavelength condition exciting at 544 nm and reading the emission at 590 nm. The inhibitory effect of the compounds was measured as a decrease (%) in the signal rate as compared to the control group without any inhibitor (only diluted DMSO). Data was fixed to a logistic model with four variables and IC50 value was calculated using GraphPad Prism program.

[1] = molecular target: T2, recombinant human MAO-A (monoamine oxidase-A) (Homo sapiens, UniProt P21397); test: Activity evaluation on recombinant human MAO-A (Amplex Red/HRP-coupled assay, 0.5 mM tyramine substrate); details: 0.5 mM tyramine, read-out: Inhibitory Activity (IC50, nM) MAO-A
T2 construct: purchased Sigma-Aldrich
T2 sequence (P21397 1-527): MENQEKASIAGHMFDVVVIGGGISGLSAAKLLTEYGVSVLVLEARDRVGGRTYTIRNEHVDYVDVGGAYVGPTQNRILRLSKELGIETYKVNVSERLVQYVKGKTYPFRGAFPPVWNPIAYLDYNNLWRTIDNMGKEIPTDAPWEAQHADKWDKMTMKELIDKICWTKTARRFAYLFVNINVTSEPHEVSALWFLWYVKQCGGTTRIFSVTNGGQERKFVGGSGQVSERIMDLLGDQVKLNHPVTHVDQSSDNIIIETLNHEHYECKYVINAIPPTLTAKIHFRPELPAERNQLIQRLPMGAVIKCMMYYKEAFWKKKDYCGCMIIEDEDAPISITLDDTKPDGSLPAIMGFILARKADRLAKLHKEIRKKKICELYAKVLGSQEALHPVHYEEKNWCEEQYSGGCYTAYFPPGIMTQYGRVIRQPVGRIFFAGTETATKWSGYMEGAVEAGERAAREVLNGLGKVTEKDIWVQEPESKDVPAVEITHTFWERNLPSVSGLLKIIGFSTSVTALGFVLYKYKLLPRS
Protocol: as §1
(§2) In addition, the compounds according to the present technology were evaluated in terms of activity on a recombinant human MAO-A (monoamine oxidase-A, Sigma-Aldrich) and a recombinant human MAO-B (monoamine oxidase-B, Sigma-Aldrich) by using as substrates, 0.5 mM tyramine and 1 mM benzylamine, respectively, with a method similar to the activity evaluation method for recombinant human VAP-1. The compounds according to the present technology were also evaluated in terms of activity on a recombinant human DAO (diamine oxidase, R&D systems) by using as a substrate 1 mM putrescine with a method similar to the activity evaluation method for recombinant human VAP-1.

[2] = molecular target: T3, recombinant human MAO-B (monoamine oxidase-B) (Homo sapiens, UniProt P27338); test: Activity evaluation on recombinant human MAO-B (Amplex Red/HRP-coupled assay, 1 mM benzylamine substrate); details: 1 mM benzylamine, read-out: Inhibitory Activity (IC50, nM) MAO-B
T3 construct: purchased Sigma-Aldrich
T3 sequence (P27338 1-520): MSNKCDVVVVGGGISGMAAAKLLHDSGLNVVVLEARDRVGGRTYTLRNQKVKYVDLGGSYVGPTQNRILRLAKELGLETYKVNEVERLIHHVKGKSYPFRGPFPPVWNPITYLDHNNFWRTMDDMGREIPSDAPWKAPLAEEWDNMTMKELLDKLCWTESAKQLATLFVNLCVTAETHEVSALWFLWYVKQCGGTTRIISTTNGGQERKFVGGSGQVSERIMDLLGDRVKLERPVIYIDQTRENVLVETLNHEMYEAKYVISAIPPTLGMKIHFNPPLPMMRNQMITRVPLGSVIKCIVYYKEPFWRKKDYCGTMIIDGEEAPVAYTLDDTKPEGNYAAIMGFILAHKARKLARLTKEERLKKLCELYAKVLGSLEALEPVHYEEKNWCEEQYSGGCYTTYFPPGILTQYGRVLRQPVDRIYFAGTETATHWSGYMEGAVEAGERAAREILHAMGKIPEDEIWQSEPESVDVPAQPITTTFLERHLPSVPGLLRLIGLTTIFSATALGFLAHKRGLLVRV
Protocol: as §1, §2

[3] = molecular target: T4, recombinant human DAO (diamine oxidase) (Homo sapiens, UniProt P19801); test: Activity evaluation on recombinant human DAO (Amplex Red/HRP-coupled assay, 1 mM putrescine substrate); details: 1 mM putrescine, read-out: Inhibitory Activity (IC50, nM) DAO
T4 construct: purchased R&D systems
T4 sequence (P19801 20-751): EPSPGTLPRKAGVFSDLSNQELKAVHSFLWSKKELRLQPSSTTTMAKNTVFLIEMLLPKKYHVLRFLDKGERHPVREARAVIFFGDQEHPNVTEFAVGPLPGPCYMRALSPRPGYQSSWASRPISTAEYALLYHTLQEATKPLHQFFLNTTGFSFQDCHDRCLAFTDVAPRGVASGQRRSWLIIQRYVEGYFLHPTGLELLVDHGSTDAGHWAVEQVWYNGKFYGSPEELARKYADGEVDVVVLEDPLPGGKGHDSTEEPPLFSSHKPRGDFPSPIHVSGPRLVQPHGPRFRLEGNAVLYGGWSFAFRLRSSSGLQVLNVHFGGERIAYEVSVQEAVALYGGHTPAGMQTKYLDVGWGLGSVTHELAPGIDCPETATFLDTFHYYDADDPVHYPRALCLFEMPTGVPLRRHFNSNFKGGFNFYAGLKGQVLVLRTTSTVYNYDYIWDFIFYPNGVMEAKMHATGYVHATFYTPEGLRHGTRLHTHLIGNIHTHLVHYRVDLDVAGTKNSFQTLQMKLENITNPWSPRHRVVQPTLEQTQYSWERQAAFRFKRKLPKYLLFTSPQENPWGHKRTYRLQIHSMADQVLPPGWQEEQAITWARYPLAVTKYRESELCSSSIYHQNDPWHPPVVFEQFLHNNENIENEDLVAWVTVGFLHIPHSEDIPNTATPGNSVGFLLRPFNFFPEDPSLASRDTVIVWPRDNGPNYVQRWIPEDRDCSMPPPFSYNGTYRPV
Protocol: as §1, §2

| IC50 (recombinant human VAP-1) [nM] | IC50 [1] [nM] | IC50 [2] [nM] | IC50 [3] [nM] | SMILES |
| --- | --- | --- | --- | --- |
| 43 | > 100000 | > 10000 | 55000 | Cc1cc(Br)ncc1-n1cnn(CC(CN)=C(F)F)c1=O [Example 12, 2-[2-(aminomethyl)-3,3-difluoro-allyl]-4-(6-bromo-4-methyl-3-pyridyl)-1,2,4-triazol-3-one Trifluoroacetate] |
| 3.6 | > 100000 | 3600 | 910 | Cc1cc(-n2cnn(CC(CN)=C(F)F)c2=O)cnc1Br [Example 13, 2-[2-(aminomethyl)-3,3-difluoro-allyl]-4-(6-bromo-5-methyl-3-pyridyl)-1,2,4-triazol-3-one Trifluoroacetate] |
| 1.4 | > 100000 | 40000 | 4100 | NCC(Cn1ncn(-c2ncc(Br)cc2F)c1=O)=C(F)F [Example 14, 2-[2-(aminomethyl)-3,3-difluoro-allyl]-4-(5-bromo-3-fluoro-2-pyridyl)-1,2,4-triazol-3-one Trifluoroacetate] |
| 3 | > 100000 | > 100000 | > 100000 | Cc1ccc(Br)nc1-n1cnn(CC(CN)=C(F)F)c1=O [Example 15, 2-[2-(aminomethyl)-3,3-difluoro-allyl]-4-(6-bromo-3-methyl-2-pyridyl)-1,2,4-triazol-3-one Trifluoroacetate] |
| 4.6 | > 100000 | 38000 | 1100 | NCC(Cn1ncn(-c2cnc(Br)cn2)c1=O)=C(F)F [Example 16, 2-[2-(aminomethyl)-3,3-difluoro-allyl]-4-(5-bromopyrazin-2-yl)-1,2,4-triazol-3-one Trifluoroacetate] |
| 12 | > 100000 | > 10000 | 1300 | CS(=O)(=O)c1ccc(-c2cccc(-n3cnn(CC(CN)=C(F)F)c3=O)c2)cc1 [Example 17, 2-[2-(aminomethyl)-3,3-difluoro-allyl]-4-[3-(4-methylsulfonylphenyl)phenyl]-1,2,4-triazol-3-one Trifluoroacetate] |
| 15 | > 100000 | > 100000 | 13000 | NCC(Cn1ncn(-c2cccc(-c3ccc(N4CCNCC4)cc3)c2)c1=O)=C(F)F [Example 18, 2-[2-(aminomethyl)-3,3-difluoro-allyl]-4-[3-(4-piperazin-1-ylphenyl)phenyl]-1,2,4-triazol-3-one Ditrifluoroacetate] |
| 5.3 | > 100000 | > 10000 | 240 | NCC(Cn1ncn(-c2cccc(-c3ccc(C(F)(F)F)nc3)c2)c1=O)=C(F)F [Example 19, 2-[2-(aminomethyl)-3,3-difluoro-allyl]-4-[3-[6-(trifluoromethyl)-3-pyridyl]phenyl]-1,2,4-triazol-3-one Trifluoroacetate] |
| 2.1 | > 100000 | > 100000 | 350 | CN(C)c1ccc(-c2cccc(-n3cnn(CC(CN)=C(F)F)c3=O)c2)cn1 [Example 20, 2-[2-(aminomethyl)-3,3-difluoro-allyl]-4-[3-[6-(dimethylamino)-3-pyridyl]phenyl]-1,2,4-triazol-3-one Trifluoroacetate] |
| 2.5 | 36200 | 18000 | 6300 | NCC(Cn1ncn(-c2cccc(-c3ccc4c(c3)OCO4)c2)c1=O)=C(F)F [Example 21, 2-[2-(aminomethyl)-3,3-difluoro-allyl]-4-[3-(1,3-benzodioxol-5-yl)phenyl]-1,2,4-triazol-3-one Trifluoroacetate] |
| 0.8 | > 100000 | > 100000 | > 10000 | Cc1cc(-c2cccc(-n3cnn(CC(CN)=C(F)F)c3=O)c2)cc2c1NC(=O)CC2 [Example 22, 6-[3-[1-[2-(aminomethyl)-3,3-difluoro-allyl]-5-oxo-1,2,4-triazol-4-yl]phenyl]-8-methyl-3,4-dihydro-1H-quinolin-2-one Trifluoroacetate] |
| 3.1 | > 100000 | > 100000 | 8400 | CCn1cc(-c2cccc(-n3cnn(CC(CN)=C(F)F)c3=O)c2)cn1 [Example 23, 2-[2-(aminomethyl)-3,3-difluoro-allyl]-4-[3-(1-ethylpyrazol-4-yl)phenyl]-1,2,4-triazol-3-one Trifluoroacetate] |
